Test results reported in patent US20120322813A1, “RUTAECARPINE DERIVATIVES FOR TREATING CAFFEINE TOXICITY” (priority 2011, published 2012).

Tested on: CYP1A2
Assay: MEROD assay in live Hepa1c1c7 cells incubated with test compound (CYP1A2 induction)
Assay type: cell-based, mouse
Conditions: live Hepa1c1c7 cells incubated with 10 μM compound
From the text: FIG. 1 illustrates how caffeine is primarily metabolized to paraxanthine via CYP1A2 enzyme in a human, according to some embodiments. The MEROD (methoxyresorufin-O-demethylase) assay measures the activity of the enzyme (CYP1A2) that converts methoxyresorufin (probe substrate) to resorufin (demethylation) in the presence of NADPH. The resulting resorufin concentration can be measured using a fluorescence reader by setting the excitation and emission wavelengths at 544 and 590 nm, respectively.
For MEROD assay in live cells, Hepa1c1c7 cells were cultured in either 6-well or 24-well-plates. For the 24-well plate experiment, after confluent cells were incubated for approximately 20 hours with either resorufin, nitro-resorufin, chloro-resorufin, 3-MC or DMSO (in triplicates), culture media was removed and 180 μL fresh culture media containing […] methoxyresorufin was added per well. After 1 hour incubation at 37° C., […] aliquot was taken from each well and the formation of resorufin was measured by fluorescence. […] After 5 hours incubation at 37° C., 100 μL aliquot was taken from each well, centrifuged at 12,000 g at RT for ˜5 min and the supernatants were placed into wells of a 96-well fluorescence plate and the formation of resorufin was measured by fluorescence.

O=c1c2ccc(Cl)cc2nc2n1CCc1c-2[nH]c2ccccc12 [chloro-rutaecarpine]
formation of resorufin (MEROD): no marked difference
